From ChEMBL document CHEMBL4725437, “P450s under Restriction (PURE) Screen Using HepaRG and Primary Human Hepatocytes for Discovery of Novel HBV Antivirals” (ACS Med Chem Lett, 2020)
Activity calls are given as the source filed them. No cut-off for these calls is given here.

Experiments:
[1] = tested on: Hepatitis B virus; test: (§1) Antiviral activity against Hepatitis B virus infected in human HepaRG cells assessed as inhibition of […] under CYP450 restriction pre-treated for 1 hr with CYP450 inhibitors ABT and SKF-525A on day 5 post-infection followed by removal of media and supplemented with fresh media containing diluted compound and further incubated for 3 days then followed by treatment for 1 hr with CYP450 inhibitors ABT and SKF-525A on day 8 post-infection followed by removal of media and supplemented with fresh media containing diluted compound and further incubated for 3 days in presence of 25 uM SKF-525A and measured on day 11 post-infection by chemiluminescence immunostaining assay; format: functional, organism-based
[2] = Half life in human primary hepatocytes at 1 uM measured up to 3 hrs by LC-MS/MS analysis; format: ADME, cell-based, Hepatocyte
[3] = tested on: Hepatitis B virus; test: Antiviral activity against Hepatitis B virus infected in human HepaRG cells assessed as inhibition of […] measured on day 11 post-infection by chemiluminescence immunostaining assay; format: functional, organism-based; conditions: 264 h
[4] = Half life in human primary hepatocytes at 1 uM measured up to 3 hrs under CYP450 restriction in presence of CYP450 inhibitiors ABT and SKF-525A by LC-MS/MS analysis; format: ADME, cell-based, Hepatocyte
[5] = molecular target: T1, CYP3A4 (Homo sapiens, UniProt P08684); test: (§2) Inhibition of CYP3A4 in HBV-infected human HepaRG cells at 50 uM using luciferin-IPA as substrate treated for 1 hr on day 5 post-infection followed by removal of media and supplemented with fresh media and further incubated for 3 days then followed by treatment for 1 hr on day 8 post-infection followed by removal of media and supplemented with fresh media and further incubated for 3 days in presence of 10 mM ABT and measured on day 11 post-infection by P450-Glo chemiluminescent assay relative to control; format: ADME, tissue-based; conditions: probe luciferin-IPA, with ABT 10 mM
T1 sequence (P08684 whole entry): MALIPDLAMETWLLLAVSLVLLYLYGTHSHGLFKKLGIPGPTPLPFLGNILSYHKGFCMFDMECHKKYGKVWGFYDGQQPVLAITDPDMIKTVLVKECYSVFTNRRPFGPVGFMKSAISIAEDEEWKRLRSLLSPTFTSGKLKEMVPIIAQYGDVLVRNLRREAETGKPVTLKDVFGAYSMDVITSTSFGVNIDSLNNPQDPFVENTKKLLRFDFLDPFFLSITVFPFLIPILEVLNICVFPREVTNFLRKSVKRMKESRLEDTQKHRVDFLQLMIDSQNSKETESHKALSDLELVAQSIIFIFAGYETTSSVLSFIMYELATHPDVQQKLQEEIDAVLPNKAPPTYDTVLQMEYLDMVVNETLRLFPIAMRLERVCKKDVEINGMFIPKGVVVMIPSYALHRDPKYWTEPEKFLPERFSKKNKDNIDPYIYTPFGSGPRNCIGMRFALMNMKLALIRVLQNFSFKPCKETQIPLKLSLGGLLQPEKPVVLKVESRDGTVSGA

[6] = molecular target: T2, CYP2C9 (Homo sapiens, UniProt P11712); test: (§3) Inhibition of CYP2C9 in HBV-infected human HepaRG cells at 50 uM using luciferin-H as substrate treated for 1 hr on day 5 post-infection followed by removal of media and supplemented with fresh media and further incubated for 3 days in presence of 10 mM ABT by P450-Glo chemiluminescent assay relative to control; format: ADME, tissue-based; conditions: probe luciferin-H, with ABT 10 mM
T2 sequence (P11712 whole entry): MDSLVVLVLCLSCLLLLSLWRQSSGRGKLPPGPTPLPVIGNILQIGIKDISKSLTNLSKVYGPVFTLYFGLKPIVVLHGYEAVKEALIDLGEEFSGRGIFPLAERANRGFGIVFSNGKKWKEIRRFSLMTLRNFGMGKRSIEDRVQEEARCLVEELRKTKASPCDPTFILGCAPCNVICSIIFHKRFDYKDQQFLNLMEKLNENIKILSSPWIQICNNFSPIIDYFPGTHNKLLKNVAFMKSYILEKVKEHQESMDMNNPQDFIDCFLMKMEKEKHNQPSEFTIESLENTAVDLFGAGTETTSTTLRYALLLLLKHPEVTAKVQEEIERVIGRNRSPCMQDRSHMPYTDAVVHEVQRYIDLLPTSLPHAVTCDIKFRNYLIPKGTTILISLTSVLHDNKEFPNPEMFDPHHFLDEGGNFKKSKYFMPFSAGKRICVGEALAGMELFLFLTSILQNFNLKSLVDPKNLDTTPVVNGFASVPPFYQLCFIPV

[7] = tested on: HepaRG; test: (§4) Cytotoxicity against human HepaRG cells infected with HBV assessed as reduction in cell viability at 5 to 100 uM treated for 1 hr on day 5 post-infection followed by removal of media and supplemented with fresh media and further incubated for 3 days then followed by treatment for 1 hr on day 8 post-infection followed by removal of media and supplemented with fresh media and further incubated for 3 days and measured on day 11 post-infection by Celltiter-Glo assay; format: cell-based; conditions: dose 5-100 µM
[8] = tested on: HepaRG; test: as §4, with “viability at 50 uM treated” for “viability at 5 to 100 uM treated”, “3 days in presence of 10 mM ABT and measured” for “3 days and measured”; format: cell-based
[9] = molecular target: T1, CYP3A4; test: as §3, with “CYP3A4” for “CYP2C9”, “luciferin-IPA” for “luciferin-H”; format: ADME, tissue-based; conditions: probe luciferin-IPA, with ABT 10 mM
[10] = molecular target: T3, Cytochrome P450 2C9 (Homo sapiens, UniProt P11712); test: as §2, with “of CYP2C9” for “of CYP3A4”, “at 5 to 100” for “at 50”, “using luciferin-H” for “using luciferin-IPA”, “days” for “days in presence of 10 mM ABT”, “assay” for “assay relative to control”; format: ADME, tissue-based; conditions: dose 5-100 µM
T3 sequence (P11712 whole entry): as above

[11] = molecular target: T4, CYP1A2 (Homo sapiens, UniProt P05177); test: as §2, with “CYP1A2” for “CYP3A4”, “luciferin-1A2” for “luciferin-IPA”; format: ADME, tissue-based; conditions: probe luciferin-1A2, with ABT 10 mM
T4 sequence (P05177 whole entry): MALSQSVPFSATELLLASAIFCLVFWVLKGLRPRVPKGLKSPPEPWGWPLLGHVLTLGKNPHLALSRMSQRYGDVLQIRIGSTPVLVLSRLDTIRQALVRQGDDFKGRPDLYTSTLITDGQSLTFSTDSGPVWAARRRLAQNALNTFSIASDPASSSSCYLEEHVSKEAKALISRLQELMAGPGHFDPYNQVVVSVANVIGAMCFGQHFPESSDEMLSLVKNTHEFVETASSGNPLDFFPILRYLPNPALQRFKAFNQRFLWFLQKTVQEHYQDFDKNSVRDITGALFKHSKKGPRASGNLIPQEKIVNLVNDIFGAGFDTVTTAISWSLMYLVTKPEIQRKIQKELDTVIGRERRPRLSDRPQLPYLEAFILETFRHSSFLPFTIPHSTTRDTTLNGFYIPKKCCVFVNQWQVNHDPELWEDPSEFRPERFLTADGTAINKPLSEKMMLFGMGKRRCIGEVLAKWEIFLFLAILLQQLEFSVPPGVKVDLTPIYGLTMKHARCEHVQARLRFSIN

[12] = tested on: Hepatocyte; test: Cytotoxicity against human primary hepatocytes infected with HBV assessed as reduction in cell viability at 50 uM treated for 1 hr on day 5 post-infection followed by removal of media and supplemented with fresh media and further incubated for 3 days then followed by treatment for 1 hr on day 8 post-infection followed by removal of media and supplemented with fresh media and further incubated for 3 days in presence of 10 mM ABT and measured on day 11 post-infection by Celltiter-Glo assay relative to control; format: cell-based
[13] = molecular target: T5, Cytochrome P450 3A4 (Homo sapiens, UniProt P08684); test: as §2, with “at 5 to 100” for “at 50”, “days” for “days in presence of 10 mM ABT”, “assay” for “assay relative to control”; format: ADME, tissue-based; conditions: dose 5-100 µM
T5 sequence (P08684 whole entry): as the sequence (P08684 whole entry) above

[14] = molecular target: T5, Cytochrome P450 3A4; test: as §2, with “human primary hepatocytes” for “human HepaRG cells”, “at 5 to 100” for “at 50”, “days” for “days in presence of 10 mM ABT”, “assay” for “assay relative to control”; format: ADME, tissue-based, Primary hepatocyte; conditions: dose 5-100 µM
[15] = molecular target: T6, Cytochrome P450 1A2 (Homo sapiens, UniProt P05177); test: as §2, with “of CYP1A2” for “of CYP3A4”, “at 5 to 100” for “at 50”, “using luciferin-1A2” for “using luciferin-IPA”, “days” for “days in presence of 10 mM ABT”, “assay” for “assay relative to control”; format: ADME, tissue-based; conditions: dose 5-100 µM
T6 sequence (P05177 whole entry): T4 sequence (P05177 whole entry)

[16] = tested on: Hepatitis B virus; test: (§5) Antiviral activity against Hepatitis B virus infected in human HepaRG cells assessed as reduction in HbsAg secretion level at 50 uM treated for 1 hr on day 5 post-infection followed by removal of media and supplemented with fresh media and further incubated for 3 B37days then followed by treatment for 1 hr on day 8 post-infection followed by removal of media and supplemented with fresh media and further incubated for 3 days in presence of 10 mM ABT and measured on day 11 post-infection by chemiluminescence immunostaining assay; format: functional, organism-based
[17] = molecular target: T2, CYP2C9; test: (§6) Inhibition of CYP2C9 in HBV-infected human HepaRG cells at 50 uM using luciferin-H as substrate treated for 1 hr on day 5 post-infection followed by removal of media and supplemented with fresh media and further incubated for 3 days by P450-Glo chemiluminescent assay relative to control; format: ADME, tissue-based; conditions: probe luciferin-H
[18] = molecular target: T1, CYP3A4; test: Inhibition of CYP3A4 in HBV-infected human HepaRG cells at 50 uM using luciferin-IPA as substrate treated for 1 hr on day 5 post-infection followed by removal of media and supplemented with fresh media and further incubated for 3 days by P450-Glo chemiluminescent assay relative to control; format: ADME, tissue-based; conditions: probe luciferin-IPA
[19] = molecular target: T1, CYP3A4; test: as §2, with “days” for “days in presence of 10 mM ABT”; format: ADME, tissue-based; conditions: probe luciferin-IPA
[20] = tested on: Hepatitis B virus; test: as §5, with “primary hepatocytes” for “HepaRG cells”, “25” for “50”, “days” for “B37days”; format: functional, Primary hepatocyte; parameters: scale not given: the % may be the effect or the level left
[21] = molecular target: T4, CYP1A2; test: (§7) Inhibition of CYP1A2 in HBV-infected human HepaRG cells at 50 uM using luciferin-1A2 as substrate treated for 1 hr on day 5 post-infection followed by removal of media and supplemented with fresh media and further incubated for 3 days by P450-Glo chemiluminescent assay relative to control; format: ADME, tissue-based; conditions: probe luciferin-1A2
[22] = molecular target: T4, CYP1A2; test: as §3, with “CYP1A2” for “CYP2C9”, “luciferin-1A2” for “luciferin-H”; format: ADME, tissue-based; conditions: probe luciferin-1A2, with ABT 10 mM
[23] = molecular target: T2, CYP2C9; test: as §2, with “CYP2C9” for “CYP3A4”, “luciferin-H” for “luciferin-IPA”; format: ADME, tissue-based; conditions: probe luciferin-H, with ABT 10 mM
[24] = molecular target: T2, CYP2C9; test: as §6, with “days then followed by treatment for 1 hr on day 8 post-infection followed by removal of media and supplemented with fresh media and further incubated for 3 days and measured on day 11 post-infection” for “days”; format: ADME, tissue-based; conditions: probe luciferin-H
[25] = tested on: Hepatitis B virus; test: as §5, with “primary hepatocytes” for “HepaRG cells”, “days” for “B37days”, “assay relative to control” for “assay”; format: functional, organism-based; conditions: Primary hepatocyte
[26] = molecular target: T3, Cytochrome P450 2C9; test: (§8) Inhibition of CYP2C9 in HBV-infected human primary hepatocytes at 5 to 100 uM using luciferin-H as substrate treated for 1 hr on day 5 post-infection followed by removal of media and supplemented with fresh media and further incubated for 3 days then followed by treatment for 1 hr on day 8 post-infection followed by removal of media and supplemented with fresh media and further incubated for 3 days and measured on day 11 post-infection by P450-Glo chemiluminescent assay; format: ADME, tissue-based, Primary hepatocyte; conditions: dose 5-100 µM
[27] = molecular target: T4, CYP1A2; test: as §7, with “days then followed by treatment for 1 hr on day 8 post-infection followed by removal of media and supplemented with fresh media and further incubated for 3 days and measured on day 11 post-infection” for “days”; format: ADME, tissue-based; conditions: probe luciferin-1A2
[28] = molecular target: T6, Cytochrome P450 1A2; test: as §8, with “CYP1A2” for “CYP2C9”, “hepatocytes cells” for “hepatocytes”, “luciferin-1A2” for “luciferin-H”; format: ADME, tissue-based, Primary hepatocyte; conditions: dose 5-100 µM
[29] = Cytotoxicity against human HepaRG cells assessed as effect on cell viability; format: cell-based
[30] = as §1, with “Ratio of EC50 for antiviral activity against” for “Antiviral activity against”, “assessed as fold change for inhibition of HBV DNA replication under normal condition to EC50 for inhibition of” for “assessed as inhibition of”; format: functional; conditions: time 6 day

COC(=O)C1=C(C)NC(c2ncc(F)cc2F)=N[C@H]1c1ccc(F)cc1Cl
EC50 [1]: 260 nM
half-life at 1 µM [2]: 3.15 h
EC50 [3]: 220 nM
half-life at 1 µM [4]: 7.18 h

CCOC(=O)C1=C(CN2CCOCC2)NC(c2nccs2)=NC1c1ccc(F)cc1Br (centres undefined)
EC50 [1]: 11 nM
half-life at 1 µM [2]: 0.128 h
EC50 [3]: 590 nM
half-life at 1 µM [4]: > 9.33 h

CCCC(C(=O)OCCN(CC)CC)(c1ccccc1)c1ccccc1 [PROADIFEN]
inhibition at 1 h, 50 µM [5]: 90.3%
inhibition at 1 h, 50 µM [6]: 36.9%
Activity [7]: Non-Toxic
Activity [8]: Non-Toxic
inhibition at 1 h, 50 µM [9]: 83.3%
inhibition (INH) [10]: Active
inhibition at 1 h, 50 µM [11]: 88.8%
Activity [12]: 10%
inhibition (INH) [13]: Active
inhibition (INH) [14]: Active
inhibition (INH) [15]: Active
Activity [16]: inactive
inhibition at 1 h, 50 µM [17]: 21.4%
inhibition at 1 h, 50 µM [18]: 80.3%
inhibition at 1 h, 50 µM [19]: 93%
Activity [20]: 20%
inhibition at 1 h, 50 µM [21]: 2.2%
inhibition at 1 h, 50 µM [22]: 39.2%
inhibition at 1 h, 50 µM [23]: 82.1%
inhibition at 1 h, 50 µM [24]: 42.2%
Activity [25]: inactive
inhibition (INH) [26]: Active
inhibition at 1 h, 50 µM [27]: 30.8%
inhibition (INH) [28]: Active

COc1ccccc1/C(Br)=C(\NC(=O)c1ccc([N+](=O)[O-])cc1)C(=O)N1CCCCC1
EC50 [1]: 780 nM
CC50 [29]: > 30000 nM
half-life at 1 µM [2]: 0.0483 h
EC50 [3]: 5700 nM
Ratio EC50 [30]: 7.3
half-life at 1 µM [4]: > 9.33 h

O=C(Nc1ccc(F)cc1)c1ccc(CF)c(S(=O)(=O)N2CCOCC(O)C2)c1 (centres undefined)
EC50 [1]: 200 nM
CC50 [29]: > 30000 nM
half-life at 1 µM [2]: 0.342 h
EC50 [3]: 2100 nM
Ratio EC50 [30]: 11
half-life at 1 µM [4]: 2.65 h
